From the NIST ThermoML archive (doi:10.1021/je800940j)
± gives the expanded uncertainty stated by the source.

Experiment: xn = mol fraction of the nth substance listed
Settings: 101 kPa, Liquid; for viscosity: Concentric cylinders viscometry

C1CCCCC1 [cyclohexane] + Cc1ccccc1
Settings	mass density, 283.15 K [kg/m3]	mass density, 293.15 K [kg/m3]	mass density, 303.15 K [kg/m3]	mass density, 313.15 K [kg/m3]	mass density, 323.15 K [kg/m3]	viscosity, 283.15 K [mPa·s]	viscosity, 293.15 K [mPa·s]	viscosity, 303.15 K [mPa·s]	viscosity, 313.15 K [mPa·s]	viscosity, 323.15 K [mPa·s]
x1 = 0.0958	866.15 ± 0.65	856.9 ± 0.67	847.5 ± 0.69	838.15 ± 0.71	828.65 ± 0.72	0.6712 ± 0.0084	0.5995 ± 0.008	0.5395 ± 0.0076	0.4879 ± 0.0074	0.4428 ± 0.0071
x1 = 0.196	855.85 ± 0.67	846.6 ± 0.69	837.2 ± 0.71	827.8 ± 0.73	818.35 ± 0.75	0.6623 ± 0.0083	0.5908 ± 0.0079	0.5306 ± 0.0076	0.4776 ± 0.0073	0.431 ± 0.0071
x1 = 0.2986	846 ± 0.69	836.7 ± 0.71	827.3 ± 0.73	817.9 ± 0.75	808.45 ± 0.77	0.6792 ± 0.0084	0.6051 ± 0.008	0.543 ± 0.0077	0.487 ± 0.0074	0.4426 ± 0.0071
x1 = 0.3988	836.5 ± 0.71	827.2 ± 0.73	817.8 ± 0.75	808.4 ± 0.77	798.9 ± 0.78	0.6948 ± 0.0085	0.6171 ± 0.0081	0.5524 ± 0.0077	0.4971 ± 0.0074	0.4491 ± 0.0072
x1 = 0.4974	827.65 ± 0.73	818.35 ± 0.75	808.9 ± 0.76	799.45 ± 0.78	789.95 ± 0.8	0.7218 ± 0.0087	0.6378 ± 0.0082	0.5683 ± 0.0078	0.5095 ± 0.0075	0.4589 ± 0.0072
x1 = 0.5989	818.8 ± 0.74	809.4 ± 0.76	800 ± 0.78	790.5 ± 0.8	781 ± 0.82	0.7635 ± 0.0089	0.67 ± 0.0084	0.5935 ± 0.008	0.5294 ± 0.0076	0.4735 ± 0.0073
x1 = 0.6977	810.1 ± 0.76	800.7 ± 0.78	791.3 ± 0.8	781.8 ± 0.82	772.25 ± 0.84	0.8203 ± 0.0092	0.7137 ± 0.0086	0.6274 ± 0.0081	0.5553 ± 0.0077	0.4886 ± 0.0074
x1 = 0.7998	802.5 ± 0.78	793.1 ± 0.8	783.65 ± 0.82	774.15 ± 0.83	764.5 ± 0.85	0.9103 ± 0.0098	0.7838 ± 0.009	0.6824 ± 0.0085	0.5987 ± 0.008	0.5292 ± 0.0076
x1 = 0.8994	794.8 ± 0.79	785.5 ± 0.81	776.1 ± 0.83	766.5 ± 0.85	756.9 ± 0.87	0.9994 ± 0.01	0.8472 ± 0.0094	0.7271 ± 0.0087	0.6373 ± 0.0082	0.5583 ± 0.0078
x1 = 1	787.95 ± 0.81	778.7 ± 0.83	769.2 ± 0.84	759.65 ± 0.86	749.9 ± 0.88	1.18 ± 0.011	0.9847 ± 0.01	0.8295 ± 0.0093	0.7061 ± 0.0086	0.5978 ± 0.008
